What all share (type): cell-based, Saccharomyces cerevisiae
The subject of test [1] is S. cerevisiae JAY 270. The test can be described thus: Screening of growth in 24-well plates on YPDA. To be noted: for Cell growth score (colony size): YPDA, 30° C., 24 h; for Effect on cell growth in the plate assay (words): tested concentrations, 24-well plates. The method, then:
Procedure: An inoculum culture of S. cerevisiae JAY 270 was grown in 100 mL of yeast extract-peptone-dextrose (YPD) medium (10 g/L yeast extract, 20 g/L peptone, 20 g/L glucose) in 200-mL serum bottles overnight in a shaker at 30° C. and 200 rpm. The cells were collected by centrifuging 10 min at 4000×g and 4° C. To wash off the medium residue, the cell pellet was resuspended in 30 mL of sterile 0.8% (w/v) NaCl solution and centrifuged at 4000×g for 10 min. The cell pellet was washed twice. Finally, the cell pellet was resuspended and diluted in 0.8% (w/v) NaCl to achieve cell concentrations of OD600=0.02 and 0.2.
The eight compounds were added in YPDA separately at 0.03%, 0.05%, 0.1%, and 0.2% (w/v). The standard control treatment contained only YPDA medium without addition of these compounds. Since the TrpOH and TyrOH stock solutions were dissolved in DMSO, the controls for those tests were YPDA with the same concentration of DMSO. A 3-mL aliquot of YPDA medium with or without the test compounds were loaded in each well of the 24-well plate.
Ten μL of the prepared S. cerevisiae JAY 270 cell suspension at OD600=0.02 or 0.2 was loaded onto the YPDA medium in each well of the 24-well plates. Then the plates were sealed with Parafilm and incubated at 30° C. for 24 h. There were four biological replicates for each treatment.
Yeast cell growth was evaluated by visual observation of the colony size in the well and scored as 0, +, ++, and +++.

The subject of test [2] is S. cerevisiae JAY 270. Kind of test: Serum-bottle cultivation in YPD: biomass, glycerol, ethanol yields. Conditions: YPD, serum bottles. The method, then:
Procedure: Cultivations in serum bottles were used to determine the effect of the best-performing screened chemicals on the ethanol yield. S. cerevisiae JAY 270 was pre-cultured in 100 mL of YPD medium in 200-mL serum bottles overnight in a shaker at 30° C. and 200 rpm. The precultured yeast cells were collected and washed twice as described above. The cell pellet was resuspended in about 10 mL of 0.8% (w/v) NaCl and the cell concentration was estimated as OD600. TyrOH, PheOH, and TrpOH were added to 30 mL of YPD medium in 100-mL serum bottles at 0.05% and 0.2% respectively. The same amount of DMSO was added to YPD medium to serve as the control for TrpOH and TyrOH treatments. The bottles were inoculated with the prepared yeast cells to obtain an initial cell concentration of OD600=0.2. The serum bottles were sealed and cultured in a shaker at 30° C. and 200 rpm for 24 h. Each condition had three biological replicates.
Analytical methods: Cell growth was evaluated by monitoring OD600 and cell dry mass concentration. For dry mass measurements, 1.0 mL of culture was transferred to a pre-dried and pre-weighed 2-mL centrifuge tube. The tubes were centrifuged for 10 min at 14000 rpm using a microcentrifuge, and then the cell pellets were dried in an oven for 3 days at 65° C. The cell dry mass was determined by subtracting the initial tube mass from the dried mass of tube with cells. The concentrations of glucose, ethanol, and glycerol were measured via HPLC (Shimadzu LC20A series) outfitted with a refractive index detector and using an Aminex HPX-87H (300×7.8 mm) organic acid column and Cation H+ guard cartridge (Bio Rad Laboratories, Hercules, CA). The column was maintained at 65° C. and the mobile phase was 5 mM sulfuric acid with a flow rate of 0.6 mL/min. Standard compound solutions were used to calibrate the HPLC. Each sample was analyzed three times by HPLC.

The test system of test [3] is S. cerevisiae JAY 270. The test can be described thus: Growth test in liquid YNB medium, low/high nitrogen, serum bottles. Conditions: 40, 200, 1000 mg/L; low and high nitrogen media. The method, then:
A second set of tests was performed in a defined liquid medium, Yeast Nitrogen Base with Glucose (YNB), containing (NH4)2SO4 at either low (1 mM) or high (10 mM) nitrogen content. […] All serum bottles were incubated in a shaker at 30° C. and 150 RPM. Each treatment was performed in biological duplicate. Samples were collected at 0, 5, and 10 hours.

The results in this text go back to patent publication US11827917B1, “Methods for the conversion of fermentable sugars to ethanol” (Colorado State University Research Foundation, priority 2020, dated 2023).

The structures appear in SMILES notation. Entries after “also recorded” stand apart in the source; their conditions may differ. Marks after values point to notes of the source that are not given here.

For `Nc1nc[nH]n1` [3-amino-1,2,4-triazole], the “Cell growth score (colony size)” value with S. cerevisiae JAY 270 [1] (0.03% (w/v)), in the test with S. cerevisiae JAY 270 [1] (0.05% (w/v)), in the test on S. cerevisiae JAY 270 [1] (0.10% (w/v)) and in the test on S. cerevisiae JAY 270 [1] (0.20% (w/v)) was “+++” throughout. In addition, the “Effect on cell growth in the plate assay (words)” value (“Effect on cell growth” for short) in the test with S. cerevisiae JAY 270 [1] was “did not inhibit cell growth”.

In the case of `CC(C)=CCCC(C)=CCCC(C)=CCO` [Farnesol, farnesol], the “Cell growth score (colony size)” value with S. cerevisiae JAY 270 [1] (0.03% (w/v)), with S. cerevisiae JAY 270 [1] (0.05% (w/v)), in the test with S. cerevisiae JAY 270 [1] (0.10% (w/v)) and in the test with S. cerevisiae JAY 270 [1] (0.20% (w/v)) was “+++” each time. In addition, the “Effect on cell growth” value in the test on S. cerevisiae JAY 270 [1] is “did not inhibit cell growth”.

`OB(O)O` [Boric acid, reference compound]: in the test on S. cerevisiae JAY 270 [2] (0.05% (w/v)), the Biomass Yield is on record as 0.137 + 0.001 g/g, the “Biomass yield % change vs. control” value is listed as 0%, the EtOH yield is listed as 0.41 ± 0.00 g/g and the “EtOH yield % change vs. control” value was 0%. Also, in the test with S. cerevisiae JAY 270 [2] (0.05% (w/v)), the Glycerol yield is listed as 0.024 ± 0.001 g/g and the “Glycerol yield % change vs. control” value amounted to 0%. In the test with S. cerevisiae JAY 270 [2] (0.05%), the “Biomass yield vs. reference” value came to 0%, the Ethanol yield was 0.41 ± 0.00 g/g, the “Ethanol yield vs. reference” value is 0% and the Glycerol yield is recorded as 0.024 ± 0.001 g/g. In the test on S. cerevisiae JAY 270 [2] (0.05%), the “Glycerol yield vs. reference” value is recorded as −6.3% and the OD600 was 4.78. Further, in the test with S. cerevisiae JAY 270 [2] (0.05 and 0.2%), the “Effect on ethanol yield” value is listed as “did not affect ethanol yield”. Moreover, in the test on S. cerevisiae JAY 270 [2] (0.2% (w/v)), the Biomass Yield is given as 0.116 + 0.001 g/g, the “Biomass yield % change vs. control” value was −15* %, the EtOH yield was 0.41 ± 0.00 g/g and the “EtOH yield % change vs. control” value was 0%. Moreover, in the test on S. cerevisiae JAY 270 [2] (0.2% (w/v)), the Glycerol yield is reported as 0.027 ± 0.001 g/g and the “Glycerol yield % change vs. control” value is 6.9%. Also, in the test on S. cerevisiae JAY 270 [2] (0.2%), the “Biomass yield vs. reference” value is reported as −15.3%, the Ethanol yield is on record as 0.41 ± 0.00 g/g, the “Ethanol yield vs. reference” value is listed as 0% and the Glycerol yield came to 0.027 ± 0.000 g/g. Also, in the test on S. cerevisiae JAY 270 [2] (0.2%), the “Glycerol yield vs. reference” value is on record as 6.9% and the OD600 is listed as 3.96. For the same molecule, the “Cell growth score (colony size)” value in the test with S. cerevisiae JAY 270 [1] (0.03% (w/v)) is “+++”. Moreover, the “Cell growth score (colony size)” value in the test on S. cerevisiae JAY 270 [1] (0.05% (w/v)) is “+++”. In addition, the “Cell growth score (colony size)” value with S. cerevisiae JAY 270 [1] (0.10% (w/v)) is recorded as “++”. For the same molecule, the “Cell growth score (colony size)” value in the test on S. cerevisiae JAY 270 [1] (0.20% (w/v)) is “+”. In addition, in the test on S. cerevisiae JAY 270 [1], the “Effect on cell growth” value is recorded as “inhibited growth; also recorded: reduced the growth”. Also, in the test with S. cerevisiae JAY 270 [3], the “Inhibitory effect on yeast cell growth in liquid YNB medium” value is listed as “little or no growth inhibition effects”.

For `CP(=O)(O)CCC(N)C(=O)O` (stereo not drawn) [Glufosinate ammonium, glufosinate ammonium], the “Cell growth score (colony size)” value in the test on S. cerevisiae JAY 270 [1] (0.03% (w/v)), in the test with S. cerevisiae JAY 270 [1] (0.05% (w/v)), in the test on S. cerevisiae JAY 270 [1] (0.10% (w/v)) and in the test on S. cerevisiae JAY 270 [1] (0.20% (w/v)) was “+++” in each case. In the test on S. cerevisiae JAY 270 [1], the “Effect on cell growth” value is “did not inhibit cell growth”.

As for `C[C@@H]1C[C@@H]([C@H](O)CC2CC(=O)NC(=O)C2)C(=O)[C@@H](C)C1` [Cycloheximide, cycloheximide, reference compound], in the test with S. cerevisiae JAY 270 [2] (0.1 mg/L), the “Biomass yield % change vs. control” value was −12* %, the “Biomass yield vs. reference” value was −36.1%, the “Effect on ethanol yield” value is “slight decrease of ethanol yield” and the EtOH yield came to 0.42 ± 0.01 g/g. In the test with S. cerevisiae JAY 270 [2] (0.1 mg/L), the “EtOH yield % change vs. control” value is listed as −3.5%, the Ethanol yield came to 0.42 ± 0.01 g/g, the “Ethanol yield vs. reference” value amounted to 0% and the “Glycerol yield % change vs. control” value was −48* %. Moreover, in the test on S. cerevisiae JAY 270 [2] (0.1 mg/L), the “Glycerol yield vs. reference” value came out at 0.4% and the OD600 was 2.82. The molecule further had an OD600 in the test with S. cerevisiae JAY 270 [2] (0.4 mg/L) of 0.22. For the same molecule, the “Cell growth score (colony size)” value in the test on S. cerevisiae JAY 270 [1] (0.03% (w/v)) is 0. Further, the “Cell growth score (colony size)” value in the test on S. cerevisiae JAY 270 [1] (0.05% (w/v)) is 0. Also, the “Cell growth score (colony size)” value in the test with S. cerevisiae JAY 270 [1] (0.10% (w/v)) is 0. Moreover, in the test with S. cerevisiae JAY 270 [1] (0.20% (w/v)), the “Cell growth score (colony size)” value stood at 0. In the test with S. cerevisiae JAY 270 [1], the “Effect on cell growth” value is listed as “inhibited all cell growth at all tested concentrations”. Also, in the test on S. cerevisiae JAY 270 [1] (listed as cycloheximide), the “Effect on cell growth” value was “inhibited growth; also recorded: reduced the growth”.
